Reference: article PMC11020070, “Discovery of Protease-Activated Receptor 4 (PAR4)-Tethered Ligand Antagonists Using Ultralarge Virtual Screening” (ACS Pharmacology & Translational Science, 2024)

Columns and labels:
[1] = Microsomal stability, human liver microsomes; assay type: in vitro ADME; conditions: for CLint scaled at 1 µM: pH 7.4, human liver microsomes, in vitro, reaction started with NADPH; for human CLhep: predicted hepatic clearance from human liver microsomes
Protocol: The metabolic stability of each compound was investigated in mouse and human hepatic microsomes using substrate depletion methodology (% parent compound remaining). Prior to use, microsomes were removed from the freezer and allowed to thaw in a 37 °C water bath before being placed on wet ice.
In separate 96-well plates for each time point, a mixture of 0.1 M potassium phosphate-buffered (pH 7.4), 3 mM MgCl2, and 2.5 mg/mL microsomes were prewarmed at 37 °C for 5 min. Following the preincubation, a 1 μM test compound and 1 mM NADPH (for 3, 7, 15, 25, or 45 min time points) or buffer (for 0 min time point) were added to initiate the reaction. Under standard conditions, reactions were initiated with the addition of NADPH. To delineate the contribution of esterases, some experiments were initiated by the addition of substrate in the presence or absence of NADPH. Plates were incubated at 37 °C under ambient oxygenation. At the respective times, each plate’s reaction was precipitated by the addition of 2 volumes of ice-cold acetonitrile containing an internal standard (carbamazepine, 50 nM). The plates were centrifuged at 4000 rcf (4 °C) for 5 min. The resulting supernatants were transferred and diluted 1:1 (supernatant:water) into new 96-well plates in preparation for LC/MS/MS analysis. Each compound was assayed in triplicate within the same 96-well plate. The in vitro half-life (t1/2, min, eq 1), intrinsic clearance (CLint, mL/min/kg, eq 2), and subsequent predicted hepatic clearance (CLhep, mL/min/kg, eq 3) were determined employing the following equations [drawing 1] 1 [drawing 2] 2 [drawing 3] 3 The estimated percent contribution to metabolism was calculated from the percent substrate lost plots generated from metabolic incubations initiated with the addition of a test compound. Calculations compared the area under the curve (AUC) from conditions in the presence and absence of NADPH and buffer-only (control) conditions (eqs 4 and 5). AUC was calculated by using the trapezoidal method [drawing 4] 4 [drawing 5] 5
The analysis of in vitro samples from microsomal stability or plasma protein binding experiments was determined by employing LCMS/MS with an electrospray ionization-enabled 5500 Sciex instrument (Sciex, Foster City, CA) that was coupled to Agilent HPLC pumps and an autosampler (Agilent Technologies, Santa Clara, CA). Analytes were separated by gradient elution using a Kinetex C18 column (2.1 mm × 50 mm, 5 μm; Phenomenex, Torrance, CA) warmed to 35 °C. Mobile phase A was 0.5% formic acid in water, and mobile phase B was 0.5% formic acid in acetonitrile. […] The total run time was 2.8 min, and the HPLC flow rate was 0.5 mL/min. Mass spectral analyses were performed using multiple reaction monitoring, with transitions and voltages specific for each analyte using a Turbo Ion Spray source (source temperature of 500 °C) in positive ionization mode (5.0 kV spray voltage). Multiple reaction monitoring transitions were the following: 6110B8 (m/z 345.02 → 149.03, DP = 31; EP = 10; CE = 37 and CXP = 14), 6G3R (m/z 421.06 → 225.12, DP = 91; EP = 10; CE = 39 and CXP = 12), 5D22 (m/z 309.068 → 211.16, DP = 131; EP = 10; CE = 29 and CXP = 12), and carbamazepine (m/z 237 → 194, DP = 96; EP = 10; CE = 25 and CXP = 8). Data were analyzed using OS Sciex Analyst 1.5.1 (SCIEX, Framingham, MA), Graphpad Prism 10.1.0 (GraphPad Software, Boston, Massachusetts), and Microsoft Excel version 2310 (Microsoft, Redmond, WA).

PAR4 = molecular target: T1, PAR4 (Homo sapiens, UniProt Q96RI0); experiment: PAR4 component of α-thrombin activation (α-thrombin + vorapaxar) in human platelets; assay type: cell-based; set-up: endogenous in cells; host or cells: platelets; conditions: for IC50: α-thrombin + vorapaxar, read-out: PAR4 IC50 (Figure 6D)
T1 sequence (Q96RI0 18-385): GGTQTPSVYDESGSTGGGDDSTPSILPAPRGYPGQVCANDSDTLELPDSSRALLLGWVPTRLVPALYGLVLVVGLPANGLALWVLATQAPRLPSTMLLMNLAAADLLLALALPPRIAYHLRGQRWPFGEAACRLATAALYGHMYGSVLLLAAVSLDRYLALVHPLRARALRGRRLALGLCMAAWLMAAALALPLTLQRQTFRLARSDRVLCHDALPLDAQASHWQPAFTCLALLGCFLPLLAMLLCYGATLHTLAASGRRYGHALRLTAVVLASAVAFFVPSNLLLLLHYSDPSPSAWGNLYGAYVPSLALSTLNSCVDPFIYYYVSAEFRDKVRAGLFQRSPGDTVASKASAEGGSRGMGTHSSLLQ
Protocol: Figure 5 (A) Off-target controls: % of vehicle control for γ-thrombin (100 nM), PAR4 component of α-thrombin (5 nM α-thrombin +1 μM vorapaxar), PAR4 agonist peptide 200 μM AYPGKF, 200 μM PAR1 agonist peptide SFLLRN, and GPVI agonist convulxin 3.16 nM.
Figure 6 (A) Distribution of IC50 values for the inhibition of human PAR4 vs mouse PAR4. Red indicates the 2 compounds highlighted in panels (B–D). (B) Structures of exemplar compounds. (C) Concentration–response curves for human vs mouse PAR4. (D) Concentration–response curves for the inhibition of pharmacologically defined α-thrombin components for PAR1 (α-thrombin + BMS-3) vs PAR4 (α-thrombin + vorapaxar).
α-thrombin activates both PAR1 and PAR4, and the individual PAR1 or PAR4 component can be isolated pharmacologically. […] With 20 substitutions between PAR1 and PAR4 within 5 Å of the predicted 31 binding site, the basis for these selectivity differences is not known (Figure S4). As we continue to probe for a selective PAR4 antagonist, mutagenesis of individual residues will be conducted.
Compounds were screened for inhibition activity against human PAR4 using 100 nM γ-thrombin or 200 μM PAR4-AP in a single-point assay (10 μM test compound). Dose–response curves were conducted for active compounds. Active compounds were also assessed at a single concentration of 10 μM against other agonists, including the PAR4 component of α-thrombin (5 nM α-thrombin +1 μM vorapaxar), the PAR1 agonist peptide (20 μM SFFLRN), and the GPVI receptor agonist convulxin (3 nM).

| Compound | CLint scaled at 1 µM [1] [mL/min/kg] | human CLhep [1] [mL/min/kg] | inhibition of PAR4 component of α-thrombin activation (PAR4; 10 μM compound, 5 nM α-thrombin + 1 μM vorapaxar) | IC50 (PAR4) [nM] |
| --- | --- | --- | --- | --- |
| COc1cccc(-c2nc(NC(=O)c3nn(-c4ccccc4)c4c3CCCC4)n[nH]2)c1 [Compound 32] | 285 | 19.6 | – | – |
| Cc1nc(NC(=O)c2cc(-c3ccccc3)n(-c3ccccc3)n2)n[nH]1 [Compound 7] | – | – | did inhibit | – |
| O=C(Nc1n[nH]c(-c2ccc(F)cc2F)n1)c1nn(-c2ccccc2)c2c1CCCC2 [Compound 31] | 459 | 20.1 | – | 163 |
| Cn1nc(C(=O)Nc2n[nH]c(-c3c(F)cccc3F)n2)cc1C1CC1 [Compound 12] | 478 | 20.1 | – | 149 |
| Cc1cc(C(=O)Nc2n[nH]c(OC(F)F)n2)nn1-c1ccccc1 [Compound 9] | 407 | 20 | – | – |
| O=C(Nc1nc[nH]n1)c1nn(-c2ccccc2)c2c1CCC2 [Compound 17] | 49.6 | 14.8 | – | – |
